Data published in the supplement of paper PMC10307832.

Assays:
Assay in all cases: relative viability (nuclei count vs DMSO), 5 days (fraction); higher = more cells survive
[1] = compound: C1COCCN1C2=NC(=NC3=C2OC4=C3C=CC=N4)C5=CC(=CC=C5)NC(=O)C6=CN=C(C=C6)N + CC(=O)c1c(C)c2cnc(Nc3ccc(N4CCNCC4)cn3)nc2n(C2CCCC2)c1=O [Palbociclib] (partner 0.5 µM)
Summary of the method: (§1)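 Dosing by pin tool came one day after lung cancer cell lines were seeded in 1536-well plates, using either one drug or a fixed anchor-drug dose plus five library-drug doses (not always all listed) in √10 steps. After 5 days, nuclei were counted on 4× images. Relative viability is treated-well nuclei count divided by vehicle-well nuclei count, and values are medians of duplicate plates.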

SGI-1776 + Phenformin = compound: CN1CCC(CNc2ccc3ncc(-c4cccc(OC(F)(F)F)c4)n3n2)CC1 [SGI-1776] + N=C(N)NC(=N)NCCc1ccccc1 [Phenformin] (partner 250 µM)
Summary of the method: as §1

SGI-1776 + Olaparib = compound: CN1CCC(CNc2ccc3ncc(-c4cccc(OC(F)(F)F)c4)n3n2)CC1 [SGI-1776] + O=C(c1cc(Cc2n[nH]c(=O)c3ccccc23)ccc1F)N1CCN(C(=O)C2CC2)CC1 [Olaparib] (partner 8 µM)
Summary of the method: as §1

Entinostat + Phenformin = compound: Nc1ccccc1NC(=O)c1ccc(CNC(=O)OCc2cccnc2)cc1 [Entinostat] + N=C(N)NC(=N)NCCc1ccccc1 [Phenformin] (partner 250 µM)
Summary of the method: as §1

Cell Line	relative viability ([1]; first compound 0.02 µM)	relative viability ([1]; first compound 0.06325 µM)	relative viability ([1]; first compound 0.2 µM)	relative viability ([1]; first compound 0.6325 µM)	relative viability ([1]; first compound 2 µM)	relative viability (SGI-1776 + Phenformin; first compound 0.08 µM)	relative viability (SGI-1776 + Phenformin; first compound 0.8 µM)	relative viability (SGI-1776 + Phenformin; first compound 2.53 µM)	relative viability (SGI-1776 + Phenformin; first compound 8 µM)	relative viability (SGI-1776 + Olaparib; first compound 0.08 µM)	relative viability (SGI-1776 + Olaparib; first compound 0.8 µM)	relative viability (SGI-1776 + Olaparib; first compound 2.53 µM)	relative viability (SGI-1776 + Olaparib; first compound 8 µM)	relative viability (Entinostat + Phenformin; first compound 0.02 µM)	relative viability (Entinostat + Phenformin; first compound 0.06325 µM)	relative viability (Entinostat + Phenformin; first compound 0.2 µM)	relative viability (Entinostat + Phenformin; first compound 0.6325 µM)	relative viability (Entinostat + Phenformin; first compound 2 µM)
NCI-H2170	0.405	0.395	0.407	0.422	0.275	0.388	0.382	0.345	0.307	0.638	0.686	0.651	0.614	0.466	0.407	0.444	0.376	0.297
HCC-366	0.397	0.435	0.367	0.419	0.22	0.61	0.527	0.564	0.431	0.347	0.449	0.379	0.294	0.578	0.61	0.582	0.451	0.186
NCI-H2405	0.498	0.566	0.499	0.48	0.359	0.384	0.304	0.215	0.227	0.828	0.879	0.789	0.712	0.392	0.462	0.414	0.352	0.358
COR-L 105	0.413	0.403	0.371	0.363	0.359	0.559	0.512	0.452	0.315	0.775	0.726	0.77	0.631	0.499	0.561	0.45	0.411	0.23
201T	0.357	0.358	0.372	0.346	0.324	0.442	0.461	0.415	0.471	0.856	0.893	0.854	0.9	0.46	0.414	0.451	0.382	0.303
NCI-H2228	0.934	0.817	0.407	0.64	0.621	0.345	0.327	0.286	0.164	0.671	0.762	0.548	0.396	0.285	0.334	0.395	0.22	0.207
LCLC-103H	0.498	0.453	0.546	0.467	0.403	0.371	0.325	0.323	0.281	0.781	0.776	0.716	0.7	0.36	0.379	0.331	0.265	0.229
NCI-H2087	0.211	0.223	0.235	0.219	0.194	0.444	0.394	0.432	0.44	0.601	0.637	0.727	0.521	0.425	0.474	0.416	0.319	0.168
NCI-H358	0.119	0.14	0.137	0.145	0.108	0.325	0.34	0.313	0.214	0.648	0.605	0.569	0.403	0.335	0.546	0.506	0.245	0.108
